PMC4068829 (Journal of medicinal chemistry, 2013)
Like-named read-outs stand apart in the source and are kept apart here. Blank lines part the entries; values can stand above or below the molecule they belong to.

Columns and labels:
[1] = cited from earlier work
MATE1 [2] = target: T1, MATE1 (Homo sapiens, UniProt Q96FL8); experiment: High throughput screen
T1 sequence (Q96FL8 1-570): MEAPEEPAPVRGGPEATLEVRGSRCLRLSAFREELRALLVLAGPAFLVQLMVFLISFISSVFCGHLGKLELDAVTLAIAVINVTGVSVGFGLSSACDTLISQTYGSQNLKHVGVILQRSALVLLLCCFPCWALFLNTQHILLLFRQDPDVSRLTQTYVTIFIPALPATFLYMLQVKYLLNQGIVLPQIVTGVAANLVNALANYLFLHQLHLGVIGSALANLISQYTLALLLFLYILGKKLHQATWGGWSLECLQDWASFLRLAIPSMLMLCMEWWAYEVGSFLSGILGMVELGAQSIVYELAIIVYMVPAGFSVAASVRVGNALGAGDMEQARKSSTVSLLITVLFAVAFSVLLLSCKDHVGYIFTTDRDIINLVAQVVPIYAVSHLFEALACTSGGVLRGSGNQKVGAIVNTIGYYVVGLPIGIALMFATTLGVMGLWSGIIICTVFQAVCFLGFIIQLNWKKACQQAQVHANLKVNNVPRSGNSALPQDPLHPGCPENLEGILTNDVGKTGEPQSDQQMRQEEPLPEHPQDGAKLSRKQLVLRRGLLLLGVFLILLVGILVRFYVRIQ

human MATE2-K = human MATE2-K (Homo sapiens, UniProt Q86VL8); assay type: cell-based; conditions: for did not inhibit MATE2-K up to: highest concentration without inhibition, data not shown
human MATE2-K, sequence (Q86VL8 1-566 isoform Q86VL8-3): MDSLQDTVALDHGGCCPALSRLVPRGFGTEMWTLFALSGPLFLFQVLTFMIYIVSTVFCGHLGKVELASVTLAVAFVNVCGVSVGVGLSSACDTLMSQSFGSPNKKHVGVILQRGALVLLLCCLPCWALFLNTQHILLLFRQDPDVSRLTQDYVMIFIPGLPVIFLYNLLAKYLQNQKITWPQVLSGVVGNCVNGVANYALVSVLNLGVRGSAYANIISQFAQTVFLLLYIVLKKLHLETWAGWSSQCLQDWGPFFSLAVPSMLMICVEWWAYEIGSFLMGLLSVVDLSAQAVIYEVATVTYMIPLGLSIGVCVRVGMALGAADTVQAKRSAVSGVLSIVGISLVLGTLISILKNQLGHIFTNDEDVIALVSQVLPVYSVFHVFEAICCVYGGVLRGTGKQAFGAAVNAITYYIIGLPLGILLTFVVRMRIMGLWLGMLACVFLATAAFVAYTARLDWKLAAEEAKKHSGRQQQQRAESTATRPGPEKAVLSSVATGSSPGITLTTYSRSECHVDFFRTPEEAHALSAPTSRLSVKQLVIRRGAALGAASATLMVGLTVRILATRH

MATE1 [3] = target: T1, MATE1
MATE1 [4] = target: T1, MATE1; assay type: cell-based
MATE1 [5] = target: T1, MATE1; experiment: 14C-metformin uptake in HEK293 cells stably expressing MATE1
human OCT2 = target: T2, human OCT2 (Homo sapiens, UniProt O15244); assay type: cell-based
T2 sequence (O15244 1-555): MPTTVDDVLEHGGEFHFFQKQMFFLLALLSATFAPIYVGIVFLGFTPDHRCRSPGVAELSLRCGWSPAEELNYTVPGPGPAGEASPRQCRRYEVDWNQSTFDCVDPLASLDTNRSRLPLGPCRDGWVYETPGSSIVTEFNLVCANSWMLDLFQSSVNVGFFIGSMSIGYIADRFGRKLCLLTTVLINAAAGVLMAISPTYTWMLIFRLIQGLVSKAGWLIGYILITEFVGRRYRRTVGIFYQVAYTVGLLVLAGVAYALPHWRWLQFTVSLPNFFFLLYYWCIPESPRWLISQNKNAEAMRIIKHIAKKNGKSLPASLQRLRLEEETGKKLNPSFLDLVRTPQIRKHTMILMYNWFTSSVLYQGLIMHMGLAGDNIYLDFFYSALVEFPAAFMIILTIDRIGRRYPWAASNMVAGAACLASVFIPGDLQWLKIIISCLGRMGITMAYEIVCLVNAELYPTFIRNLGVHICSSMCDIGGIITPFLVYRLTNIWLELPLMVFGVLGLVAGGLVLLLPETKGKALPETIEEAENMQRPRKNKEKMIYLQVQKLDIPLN

[6] = ref 53 (Micromedex); cited from earlier work
MATE1 [7] = target: T1, MATE1; experiment: in vitro; conditions: HEK cells stably overexpressing MATE1, pH 7.4
[8] = clinical plasma concentration, ref 54-58 (a-e)

Structure (SMILES): CCc1c2c(nc3ccc(OC(=O)N4CCC(N5CCCCC5)CC4)cc13)-c1cc3c(c(=O)n1C2)COC(=O)[C@]3(O)CC [Irinotecan]
- Cmax ([1]; in vivo): 4600 nM

- IC50 (MATE1 [2]; read-out: prIC50, predicted IC50 estimated from screening inhibition at 20 μM): 0.8 µM
Structure (SMILES): CCOC(=O)c1ccc(OC(=O)CCCCCNC(=N)N)cc1 [Gabaxate]

- did not inhibit MATE2-K up to (human MATE2-K): > 500 µM
Structure (SMILES): COc1ccccc1OCCNCC(O)COc1cccc2[nH]c3ccccc3c12 (stereo not drawn) [Carvedilol]

- did not inhibit MATE2-K up to (human MATE2-K): > 500 µM
Structure (SMILES): COc1ccc2c(c1OC)C(=O)O[C@@H]2[C@H]1c2c(cc3c(c2OC)OCO3)CCN1C [Noscapine]

- IC50 (MATE1 [2]): 3.1 µM
Structure (SMILES): [H]/N=C(\N/C(=N/[H])NCCCCCCNC(=N)NC(=N)Nc1ccc(Cl)cc1)Nc1ccc(Cl)cc1 [Chlorhexidine]

- IC50 (MATE1 [2]): 19.7 µM
Structure (SMILES): CC[C@@]1(O)C(=O)OCc2c1cc1n(c2=O)Cc2cc3c(CN(C)C)c(O)ccc3nc2-1 [Topotecan]

- IC50 (MATE1 [2]): 9.9 µM
Structure (SMILES): CN1C2CCCC1CC(NC(=O)c1nn(C)c3ccccc13)C2 (stereo not drawn) [Granisetron]

- IC50 (MATE1 [3]): 0.16 µM
- Cmax,unbound/ IC50 of MATE1, Metformin Polarized Cells (MATE1 [3]; ratio, IC50 with 14C-metformin in polarized MDCK-hMATE1, threshold ≥ 0.1): 2.44
- Cmax,unbound/ IC50 of MATE1, ASP^+ (MATE1 [4]; ratio, IC50 with ASP+ in HEK293-MATE1, clinical relevance threshold ≥ 0.1): 0.51
- IC50 (MATE1 [5]): 0.09 µM
- Cmax,unbound/ IC50 of MATE1, Metformin (MATE1 [5]; ratio, IC50 with 14C-metformin in HEK293-MATE1, threshold ≥ 0.1): 4.34
Structure (SMILES): NC(N)=Nc1nc(CSCCC(N)=NS(N)(=O)=O)cs1 [Famotidine]
- Cmax ([1]; in vivo): 460 nM

- IC50 (human MATE2-K): 125 µM
- IC50 (MATE1 [4]): 11.1 µM
- IC50 (human OCT2): 182 µM
- IC50 (MATE1 [2]): 16 µM
- inhibition at 20 µM (MATE1 [2]; human, HEK cells stably overexpressing MATE1, pH 7.4, probe ASP+ (5 µM)): 56 ± 1%
Structure (SMILES): CO[C@@H]1[C@@H](O[C@@H]2O[C@H](C)[C@@H](O[C@H]3C[C@@](C)(O)[C@@H](OC(=O)CC(C)C)[C@H](C)O3)[C@H](N(C)C)[C@H]2O)[C@@H](CC=O)C[C@@H](C)[C@@H](O)/C=C/C=C/C[C@@H](C)OC(=O)C[C@H]1O [Leucomycin]

Structure (SMILES): COc1cc2c3cc1Oc1cc(ccc1O)C[C@@H]1c4c(cc(OC)c(O)c4Oc4ccc(cc4)C[C@@H]3N(C)CC2)CC[N+]1(C)C [Tubocurarine]
- Cmax,unbound /IC50 (MATE1, text) (MATE1 [4]): 0.07
- IC50 (MATE1 [2]): 1.1 µM

Structure (SMILES): COc1ccnc(C[S+]([O-])c2nc3ccc(OC(F)F)cc3[nH]2)c1OC (stereo not drawn) [Pantoprazole]
- Protein Binding [% bound] [6]: 98 % bound

Structure (SMILES): CN1C[C@H](C(=O)N[C@]2(C)O[C@@]3(O)[C@@H]4CCCN4C(=O)[C@H](Cc4ccccc4)N3C2=O)C[C@@H]2c3cccc4[nH]cc(c34)C[C@H]21 [Dihydroergotamine]
- IC50 (MATE1 [2]): 8 µM

- IC50 (MATE1 [2]): 13.5 µM
Structure (SMILES): C#C[C@]1(O)CC[C@H]2[C@@H]3CCc4cc(O)ccc4[C@H]3CC[C@@]21C [Ethinyl estradiol]

Structure (SMILES): O=C1c2c(O)ccc(O)c2C(=O)c2c(NCCNCCO)ccc(NCCNCCO)c21 [Mitoxantrone]
- Cmax ([1]; in vivo): 630 nM

Structure (SMILES): CC(C)(C)NC(=O)[C@@H]1CN(Cc2cccnc2)CCN1C[C@@H](O)C[C@@H](Cc1ccccc1)C(=O)N[C@H]1c2ccccc2C[C@H]1O [Indinavir]
- Cmax [1, 8]: 9800 nM

Structure (SMILES): NC1=NCC2c3ccccc3Cc3ccccc3N12 (stereo not drawn) [Epinastine]
- IC50 (MATE1 [2]): 0.6 µM

Structure (SMILES): CN(C)c1ccc(/C=C/c2cc[n+](C)cc2)cc1 [ASP^+, 4-(4-(Dimethylamino)styryl)-N-methylpyridinium iodide]
- Km at […] (MATE1 [7]): 34 µM

Structure (SMILES): N=C(N)c1ccc(OCCCCCOc2ccc(C(=N)N)cc2)cc1 [Pentamidine]
- Cmax ([1]; in vivo): 730 nM

Structure (SMILES): Cc1nccn1CC1CCc2c(c3ccccc3n2C)C1=O (stereo not drawn) [Ondansetron]
- Cmax [1, 8]: 440 nM
- Protein Binding [% bound] [6]: 73 % bound
